Measurements reported in PMC9105941, “A New Xanthone Glycoside from Mangifera indica L.: Physicochemical Properties and In Vitro Anti-Skin Aging Activities” (Molecules, 2022).
Peptide text beside a SMILES is read from it. * marks the point of attachment. MeOSuc = COC(=O)CCC(=O)*; CH2Cl = ClC*

Tests used:
Assay type in all cases: biochemical
[1] = target: elastase (Sus scrofa, UniProt P00772); experiment: EnzChek Elastase Assay Kit, anti-elastase activity; settings: fluorometric kit, 37 °C, 30 min kinetic
Procedure: Anti-elastase activity of the compound was investigated using the EnzChek® Elastase Assay Kit (E-12056) according to the previously reported method. The tested compound and reference control were prepared in concentrations of 0.1, 1, 10, and 100 µg/mL for the analysis. The compound was prepared in 96-well plates with clear bottoms for the fluorometric assay. Briefly, elastase enzyme solutions, elastase substrate, and inhibitor control were prepared as recommended. Diluted elastase solution was then added to the wells. Tested compound, inhibitor control, and enzyme control were added to subsequent wells. The samples were mixed on a shaker and then incubated for 5 min at 37 °C. Assay buffer was mixed with the substrate to prepare the fluorometric reaction mix, which was then added and mixed thoroughly with each sample. The fluorescence was measured immediately at 400 nm excitation wavelength and 505 nm emission wavelength using a microplate reader (FilterMax F5, Thermo Fisher, Waltham, MA, USA). The measurement was made in kinetic mode at 37 °C for 30 min protected from light. All tested samples were prepared and assayed in duplicate and the elastase inhibitory effect of the tested compound was calculated applying the following equation: %Relative inhibition=ΔRFU(test inhibitor)/ΔRFU×100 where: • ΔRFU = a change in relative fluorescence units • EC = enzyme control

[2] = target: collagenase; experiment: fluorometric collagenase inhibitor screening kit; settings: 37 °C, 60 min kinetic
Procedure: The inhibitory ability of the isolated compound against collagenase activity was assessed using a fluorometric collagenase inhibitor screening kit (BioVision, catalog no. # K833-100) according to the previously described method. The reference control was (1,10)-phenanthroline. The tested compound and reference control were prepared in concentrations of 1, 10, 100, and 1000 ug/mL for the analysis. The tested compound was prepared in a 96-well plate with a flat bottom. First, the collagenase substrate was dissolved in collagenase assay buffer (CAB). The sample for analysis was prepared by mixing the compound with both collagenase and CAB. Preparing inhibitor control samples was performed by mixing the inhibitor ((1,10)-phenanthroline (80 mM)) with the diluted collagenase enzyme and CAB buffer. Enzyme control was prepared by mixing the diluted collagenase with CAB. The CAB buffer was used as the background control. All samples were incubated at room temperature for 15 min. […] The fluorescence was measured immediately at 490 nm excitation wavelength and 520 nm emission wavelength using a microplate reader (FilterMax F5, Thermo Fisher). […] Samples were prepared in duplicate and the collagenase inhibitory effect of the tested compound was calculated applying the following equation: % Relative inhibition=Enzyme control−sample/Enzyme control×100

[3] = target: tyrosinase; experiment: Tyrosinase Inhibitor Screening Colorimetric Assay Kit; settings: 25 °C, 510 nm
Procedure: The inhibitory activities of oils were tested against collagenase using the Abcam® Tyrosinase Inhibitor Screening Colorimetric Assay Kit (catalog # ab204715). The assay was carried out according to the provided manual. […] The tested compound was prepared in concentrations ranging from 0.1 to 100 µg/mL for the analysis. About 2 μL of provided tyrosinase was mixed with 48 μL of tyrosinase assay buffer. The samples of essential oils or standard (20 μL) were mixed with the enzyme mixture (50 μL) and incubated at 25 °C for 10 min. Then, 30 μL of tyrosinase substrate solution was added to the wells of essential oils and standard. Afterward, the plate was measured spectrophotometrically at a wavelength of 510 nm for 30–60 min at 25 °C.

Sequence of elastase (P00772 27-266): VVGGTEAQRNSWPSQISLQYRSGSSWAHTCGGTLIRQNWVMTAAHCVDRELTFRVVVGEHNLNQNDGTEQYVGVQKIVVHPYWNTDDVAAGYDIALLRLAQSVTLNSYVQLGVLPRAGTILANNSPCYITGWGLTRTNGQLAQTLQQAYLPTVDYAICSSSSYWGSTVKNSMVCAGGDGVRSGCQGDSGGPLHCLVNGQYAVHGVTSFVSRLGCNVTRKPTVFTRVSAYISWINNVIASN

With `COC(=O)CCC(=O)N[C@@H](C)C(=O)N[C@@H](C)C(=O)N1CCC[C@H]1C(=O)N[C@H](C(=O)CCl)C(C)C` [N-methoxysuccinyl-Ala-Ala-Pro-Val-chloromethyl ketone] (MeOSuc-AAPV-CH2Cl) the “anti-elastase IC50” value [1] was 0.63 µg/mL.
With `c1cnc2c(c1)ccc1cccnc12` [phenanthroline, (1,10)-phenanthroline] the “anti-collagenase IC50” value [2] was 182.80 µg/mL.
In the case of `O=c1c2ccc(O)c(O)c2oc2c(C3OC(CO)C(O)C(O)C3O)c(O)cc(O)c12` [isolated compound, 1,3,5,6-tetrahydroxyxanthone-C-4-β-D-glucopyranoside], the “anti-tyrosinase IC50” value [3] is reported as 0.48 µg/mL.
